The source of these data is patent US9867811B2, “Method of treating atherosclerosis in high triglyceride subjects” (NOVARTIS AG, priority 2011, dated 2018).

In assay [1] the test system is CETP. The assay is described as follows: Ex vivo plasma CETP activity assay with exogenously added compound (maximum inhibition). In kind it is biochemical. Conditions: 10 μM, hamster plasma (80% plasma). How it is done:
Plasma CETP activity ex vivo was determined as followed: 50 μL of hamster plasma (final 80% plasma) was mixed with 10 μL of donor solution diluted with assay buffer composed of 50 mM Tris-HCl (pH7.4) containing 150 mM NaCl and 2 mM EDTA in a 96-well half area black flat bottom plate (Cat. No. 3686, Corning, Corning, N.Y.). Fluorescence intensity was measured every 15 min at an excitation wave length of 485 nm and an emission wavelength of 535 nm for 120 min at 37° C. using ARVO SX+L (PerkinElmer, Wellesley, Mass.). CETP activity (RFU/min) was defined as the change in fluorescence intensity from 30 to 90 min.

A short description of assay [2]: Total cholesterol and triglyceride concentrations in hamster plasma. In kind it is in vivo. Particulars: for Increase in plasma total cholesterol / Increase in plasma triglycerides: 3 h after administration. As for the experimental part: Nine- to ten-week-old, male golden Syrian hamsters were purchased from Japan SLC Inc. (Shizuoka, Japan). Animals underwent a more than 1-week acclimation period under the following conditions: 8:00/20:00 light/dark cycle, room temperature 23±2° C. (range), 55±15% (range) humidity. During this time, animals received filtered (0.5 μm) water and a standard chow diet ad libitum.
(§1) To induce an acute increase in plasma triglyceride levels, Triton WR-1339 (Cat. No. 35418-12, Nacalai Tesque Inc, Kyoto, Japan) was dissolved in saline (Otsuka Normal Saline, Otsuka Pharmaceuticals, Tokushima, Japan) at a concentration of 2.5 to 10% (w/w), and was intravenously administered at a volume of 2 mL/kg from the basilic vein under isoflurane (FORANE®, Abbott Japan Co. Ltd., Tokyo, Japan) inhalant anesthesia. Whole blood samples were collected using a heparin-washed syringe (Heparin sodium injection “Ajinomoto”; Ajinomoto, Tokyo, Japan) from the abdominal vein by venipuncture under isoflurane (Abbott Japan Co. Ltd.) inhalant anesthesia. After centrifugation at 15,000 rpm for 10 min at 4° C., heparinized plasma was prepared and stored at −80° C. until use.
Compounds (CETP inhibitors) were suspended in 0.5% methyl cellulose (Methyl cellulose 400 cP, Cat. No. 138-05072, Wako Pure Chemical Industries, Osaka, Japan) solution, which was used as a vehicle. Compound or vehicle (10 mL/kg) was administered once by oral gavage 5 h before administration of Triton WR-1339.
Cholesterol and triglyceride concentrations in plasma and serum were measured manually with kits (Cholesterol E-test, Cat. No. 439-17501, and Triglyceride E-test, Cat. No. 432-40201, Wako Pure Chemical, Osaka, Japan).

In assay [3] the test system is CETP. In words: Ex vivo CETP activity in plasma of hamsters (saline or Triton WR-1339 treated). Conditions: hamster; for Inhibition of plasma CETP activity: saline group, 8 h after dose; for Extent of CETP inhibition reduced by, relative to the saline group (74% inhibition): 10 mg/kg oral; for Increase in plasma CETP activity: 3 h after administration. How it is done: Nine- to ten-week-old, male golden Syrian hamsters were purchased from Japan SLC Inc. (Shizuoka, Japan). Animals underwent a more than 1-week acclimation period under the following conditions: 8:00/20:00 light/dark cycle, room temperature 23±2° C. […] During this time, animals received filtered (0.5 μm) water and a standard chow diet ad libitum.
Whole blood samples were collected using a heparin-washed syringe (Heparin sodium injection “Ajinomoto”; Ajinomoto, Tokyo, Japan) from the abdominal vein by venipuncture under isoflurane (Abbott Japan Co. Ltd.) inhalant anesthesia. After centrifugation at 15,000 rpm for 10 min at 4° C., heparinized plasma was prepared and stored at −80° C. until use.
CETP activity (RFU/min) was defined as the change in fluorescence intensity from 30 to 90 min.
The effect of an acute increase of plasma triglycerides in vivo (acute increase in triglyceride-rich particles) on the ability of Torcetrapib to alter plasma CETP activity, triglyceride and total cholesterol levels was investigated. Torcetrapib at doses of 3, 10 or 30 mg/kg or vehicle was administered once by gavage to hamsters fed a standard chow diet.
Compound or vehicle was administered once by gavage to hamsters fed a standard chow diet.

Assay [4] can be described thus: HPLC lipoprotein analysis in hamster plasma. In kind it is in vivo. As for the experimental part:
as §1
An HPLC-size exclusion chromatography system with an on-line enzymatic dual detection system for lipids has been used for lipoprotein analysis. Plasma samples were diluted (5-fold) with saline after filtration (0.45 μm, Millipore Co, Cat. No. UFC30HV00) and injected into the HPLC system at a volume of 100 μL (as 20 μL of plasma), every 95 min, using an auto-sampler. Plasma lipoproteins were separated using a single Superose 6 column and filtered phosphate buffered saline (0.45 μm, Millipore Co., Bedford, Mass., Cat. No. SJHVM4710; PBS, Dainippon Pharmaceutical, Osaka, Japan Cat. No. 28-103-05 FN) at a flow rate of 0.5 mL/min. Each enzymatic reagent was pumped at a flow rate of 0.25 mL/min. Both enzymatic reactions proceeded at 37° C. in a reactor coil (Teflon tube, 15 m×0.4 mm id) in the column oven. The color developed after the enzyme reaction was measured at 580 nm, and the electric signal was monitored (every 0.5 second).
A control pooled EDTA-plasma sample was used to standardize the cholesterol and phospholipid levels in lipoproteins. Cholesterol and phospholipid levels in the control plasma were measured manually with kits (Cholesterol E-test, Cat. No. 439-17501, and Phospholipid C-test, Cat. No. 433-36201, respectively, Wako Pure Chemical Industries), and the concentrations were 121.8 and 216.8 mg/dL, respectively. Concentrations of VLDL, LDL, and HDL-cholesterol and -phospholipid levels were calculated using chromatogram areas observed for control hamster plasma samples. With this methodology, the retention times of control hamster VLDL, LDL, and HDL were 18.5-24.0, 24.0-30.5, and 31.5-42.0 min, respectively.

In assay [5] the test system is CETP. In words: Plasma CETP concentrations (ELISA) in hamsters. In kind it is in vivo. Particulars: hamster, Triton WR-1339 i.v., any dose. As for the experimental part:
as §1
Plasma CETP concentrations were measured using an enzyme-linked […] assay (ELISA) kit (Cat No. 278181, Daiichi Pure Chemicals, Tokyo, Japan). Recombinant human CETP protein was used as a standard. Hamster plasma was diluted 250-fold by the dilution buffer in the kit, and then CETP concentration was measured according to the manufacturer's protocol.
In general terms: An ELISA detects its analyte on a solid surface through an enzyme-linked reagent.

Take `CCOC(=O)N1c2ccc(C(F)(F)F)cc2[C@@H](N(Cc2cc(C(F)(F)F)cc(C(F)(F)F)c2)C(=O)OC)C[C@H]1CC` [Torcetrapib]: the “Maximum inhibition of CETP activity, compound exogenously added, Triton WR-1339 group” value in assay [1] (Triton WR-1339 group) was “around 75%”. For the same compound, the “Maximum inhibition of CETP activity, compound exogenously added, saline group” value in assay [1] (saline group) is approximately 100%. In assay [2] (Triton WR-1339 treatment groups), the “Effect on plasma triglycerides” value is “did not affect”. Moreover, in assay [2] (saline group, 3 and 30 mg/kg oral doses), the “Effect on plasma triglyceride levels” value is reported as “slightly, but significantly, lowered”. For the same compound, the “Effect on total cholesterol levels” value in assay [2] (saline or Triton WR-1339 groups) is “not changed”. Besides, the “Differences between the saline and WR-1339 groups in the extent of CETP inhibition” value in assay [3] (3 mg/kg oral gavage) is on record as 5.5%; in assay [3] (10 mg/kg oral gavage) it was 13%; in assay [3] (30 mg/kg oral gavage (P<0.01)) it was 35%. The results for the “Inhibition of plasma CETP activity” value in assay [3] (3 mg/kg oral gavage), in assay [3] (10 mg/kg oral gavage) and in assay [3] (30 mg/kg oral gavage) were 38%, 74% and 88%, respectively. Besides, the “Extent of CETP inhibition reduced by, relative to the saline group (74% inhibition)” value is listed as 44% in assay [3] (Triton WR-1339 50 mg/kg i.v.) and 13% in assay [3] (Triton WR-1339 100 mg/kg i.v.). Further, the “Inhibition of CETP activity, lower dose group, Triton WR-1339 group” value in assay [3] (oral gavage: Torcetrapib 5 mg/kg, Anacetrapib 1.5 mg/kg, Example 49 1.5 mg/kg, Example 8 0.75 mg/kg, Triton WR-1339 100 mg/kg i.v., not significant vs vehicle) is listed as 13%. Besides, the “Inhibition of CETP activity, lower dose group, saline group” value in assay [3] (oral gavage: Torcetrapib 5 mg/kg, Anacetrapib 1.5 mg/kg, Example 49 1.5 mg/kg, Example 8 0.75 mg/kg, saline i.v.) was 60%. The “Inhibition of CETP activity, higher dose group, Triton WR-1339 group” value in assay [3] (oral gavage: Torcetrapib 10 mg/kg, Anacetrapib 3 mg/kg, Example 49 3 mg/kg, Example 8 1.5 mg/kg, Triton WR-1339 100 mg/kg i.v.) is reported as 8%. Also, the “Inhibition of CETP activity, higher dose group, saline group” value in assay [3] (oral gavage: Torcetrapib 10 mg/kg, Anacetrapib 3 mg/kg, Example 49 3 mg/kg, Example 8 1.5 mg/kg, saline i.v.) turned out to be 75%.

As for Triton WR-1339, the “Effect on HDL-cholesterol” value is listed as “not changed” in assay [4] (Triton WR-1339 50 mg/kg i.v.) and “reduced” in assay [4] (Triton WR-1339 100 mg/kg i.v.). The “Effect on LDL-cholesterol” value in assay [4] (Triton WR-1339 i.v.) was “reduced”. In addition, the “Effect on cholesterol content of VLDL” value in assay [4] (Triton WR-1339 i.v. compared to saline group) is “increased”. In assay [5], the “Effect on plasma CETP concentrations” value is reported as “did not significantly affect”. Further, the figures for the “Increase in plasma total cholesterol” value in assay [2] (Triton WR-1339 50 mg/kg i.v.) and in assay [2] (Triton WR-1339 100 mg/kg i.v.) were 1.2 fold and 1.4 fold, respectively. The figures for the “Increase in plasma triglycerides” value in assay [2] (Triton WR-1339 50 mg/kg i.v.) and in assay [2] (Triton WR-1339 100 mg/kg i.v.) were 2.0 fold and 4.0 fold, respectively. In addition, the “Time of maximum increase in triglyceride levels after administration” value in assay [2] (Triton WR-1339 50, 100 or 200 mg/kg i.v.) was 8 h. In addition, the figures for the “Increase in plasma CETP activity” value in assay [3] (Triton WR-1339 50 mg/kg i.v.) and in assay [3] (Triton WR-1339 100 mg/kg i.v.) were 1.7 fold and 3.7 fold, respectively.
